Data published in patent US20100041662A1, “Heterocyclic compounds as antiinflammatory agents” (priority 2006, published 2010).

T1: human ALK5 (ALK5 T204D kinase domain) (Homo sapiens, UniProt P36897, T204D)
T1 construct: The kinase domain of human ALK5 (amino acids 200-503) is fused to an N-terminal histidine tag; made in house; host or cells: insect cells (baculovirus)
T1 sequence (P36897 200-503 T204D): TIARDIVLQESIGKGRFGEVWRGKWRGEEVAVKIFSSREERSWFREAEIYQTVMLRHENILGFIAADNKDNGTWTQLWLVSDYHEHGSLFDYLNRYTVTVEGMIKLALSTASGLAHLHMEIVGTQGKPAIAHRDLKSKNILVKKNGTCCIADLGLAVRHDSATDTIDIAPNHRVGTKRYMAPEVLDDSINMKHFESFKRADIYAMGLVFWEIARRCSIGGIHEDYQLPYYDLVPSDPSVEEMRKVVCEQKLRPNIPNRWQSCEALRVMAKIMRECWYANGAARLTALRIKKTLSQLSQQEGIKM


How the values were obtained:
[1] = target: T2, JAK2 (GST-JAK2(808-1132)) (Homo sapiens, UniProt O60674); assay: JAK/TYK-kinase family profiling, Caliper mobility shift assay; format: biochemical; details: 20 μM ATP, JAK3tide substrate
T2 construct: GST-JAK2(808-1132) was purchased from Invitrogen (Carlsbad, USA, #4288); purchased Invitrogen (Carlsbad, USA) #4288
T2 sequence (O60674 808-1132): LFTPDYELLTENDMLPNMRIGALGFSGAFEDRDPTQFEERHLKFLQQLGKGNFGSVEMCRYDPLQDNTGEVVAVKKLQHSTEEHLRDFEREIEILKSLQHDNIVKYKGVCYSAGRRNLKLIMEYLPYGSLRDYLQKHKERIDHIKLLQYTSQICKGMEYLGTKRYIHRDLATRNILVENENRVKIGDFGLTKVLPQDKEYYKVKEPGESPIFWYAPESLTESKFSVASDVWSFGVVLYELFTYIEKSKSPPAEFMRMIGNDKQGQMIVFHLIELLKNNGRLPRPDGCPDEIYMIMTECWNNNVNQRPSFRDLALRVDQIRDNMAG
Text: All four kinases of the JAK/TYK-kinase family were used as purified recombinant GST-fusion proteins, containing the active kinase domains. GST-JAK1(866-1154), GST-JAK3(811-1124), and GST-TYK2(888-1187) were expressed and purified by affinity chromatography at the EPK biology unit. GST-JAK2(808-1132) was purchased from Invitrogen (Carlsbad, USA, #4288).
The kinase assays were based on the Caliper mobility shift assay using the LabChip 3000 systems. This technology is similar to capillary electrophoresis and uses charge driven separation of substrate and product in a microfluidic chip.
All kinase reactions were performed in 384 well microtiter plates in a total reaction volume of 18 μl. The assay plates were prepared with 0.1 μl per well of test compound in the appropriate test concentration, as described under the section “preparation of compound dilutions”. The reactions were started by combining 9 μl of substrate mix (consisting of peptide and ATP) with 9 μl of kinase dilution. The reactions were incubated for 60 minutes at 30° C. and stopped by adding 70 μl of stop buffer (100 mM Hepes, 5% DMSO, 0.1% Coating reagent, 10 mM EDTA, 0.015% Brij 35).
Fluorescently labeled synthetic peptides were used as substrates in all reactions. A peptide derived from the sequence of IRS-1 (IRS-1 peptide, FITC-Ahx-KKSRGDYMTMQIG-NH2) was used for JAK1 and TYK2 and a peptide named JAK3tide (FITC-GGEEEEYFELVKKKK-NH2) for JAK2 and JAK3. Specific assay conditions are described in Table 1:
The terminated reactions were transferred to the Caliper LabChip 3000 reader and the turnover of each reaction was measured by determining the substrate/product ratio.
Test compounds were dissolved in DMSO (10 mM) and transferred into 1.4 mL flat bottom or V-shaped Matrix tubes carrying a unique 2D matrix chip by individual compound hubs. The numbers of these chips were distinctively linked to the individual compound identification numbers. The stock solutions were stored at −20° C. if not used immediately. For the test procedure the vials were defrosted and identified by a scanner whereby a working sheet was generated that guided the subsequent working steps.
Compound dilutions were made in 96 well plates. This format enabled the assay of maximally 40 individual test compounds at 8 concentrations (single points) including 4 reference compounds. The dilution protocol included the production of pre-dilution plates, master plates and assay plates:
Pre-dilution plates: 96 polypropylene well plates were used as pre-dilution plates. A total of 4 pre-dilution plates were prepared including 10 test compounds each on the plate positions A1-A10, one standard compound at A11 and one DMSO control at A12. All dilution steps were done on a HamiltonSTAR robot. Master plates: 100 μL of individual compound dilutions including standard compound and controls of the 4 “pre-dilution plates” were transferred into a 384 “master plate” including the following concentrations 1′820, 564, 182, 54.6, 18.2, 5.46, 1.82 and 0.546 μM, respectively in 90% of DMSO. Assay plates: Identical assay plates were then prepared by pipetting […] each of compound dilutions of the master plates into 384-well “assay plates”. In the following the compounds were mixed with 9 μL of assays components plus 9 μL enzyme corresponding to a 1:181 dilution steps enabling the final concentration of 10, 3.0, 1.0, 0.3, 0.1, 0.03, 0.01 and 0.003 μM, respectively. The preparation of the master plates were handled by the Matrix PlateMate Plus robot and replication of assay plates by the HummingBird robot.

[2] = target: T1, human ALK5 (ALK5 T204D kinase domain); assay: ALK5 kinase activity, [33P] phosphate incorporation into casein; format: biochemical; details: casein substrate
Protocol: The kinase activity of ALK5 is assessed by measuring radiolabelled phosphate [33P] incorporation in to the generic substrate, casein. The kinase domain of human ALK5 (amino acids 200-503) is fused to an N-terminal histidine tag. The kinase activity of ALK5 is rendered constitutive via point mutation at amino acid 204 (threonine to aspartate modification, ALK5 T204D) and the kinase construct is engineered to be expressed from a baculovirus expression construct in insect cells. The purified, recombinantly-expressed histidine-tagged ALK5 T204D protein is dissolved at 5.4 mg/ml in 50 mM Tris-HCl pH 8.0, 150 mM NaCl, 5 mM DTT. ALK5 T204D is dissolved to 2.5 μg/ml in assay buffer (Assay buffer: 20 mM Tris-HCl pH 7.4, 10 mM MgCl2, 2 mM MnCl2) on the day of use.
Test compounds and reference compounds are dissolved in assay buffer without DTT containing 5% (v/v) DMSO. Stock solutions of test and reference compounds are diluted in assay buffer with DTT (1.25 mM) containing 4.5% (v/v) DMSO. 10 μl of test or reference compound are added to the appropriate wells of 96 well U-bottomed plate. Total enzyme activity is determined by measuring ALK5 T204D activity in the absence of ALK5 kinase inhibitor reference compounds. Non-specific binding (NSB) is determined by measuring the activity of ALK5 T204D in the presence of ALK5 kinase inhibitor reference compounds. 10 μl of dephosphorylated casein stock solution (dephosphorylated casein is dissolved in ddH2O at 20 mg/ml) is added per well (200 μg/well final assay concentration). 20 μl of ALK5 T204D (2.5 μg/ml solution) is added per well (50 ng/well final assay concentration). The plates are left to incubate at room temperature for 10 minutes.
10 μl of ATP mix is added to the well to initiate the reaction (0.66 nM [^33P]ATP/1 μM unlabelled ATP/well final assay concentration). The ATP mix is prepared as follows, unlabelled ATP (3 mM) is dissolved in ddH2O and pH adjusted to 7.4. The stock concentration of [^33P]ATP is 10 μCi/μl. The appropriate volume of [^33P]ATP is added to unlabelled ATP solution such that the final assay concentration per well is 0.1 μCi. Following addition of the ATP mix, the plates are incubated at room temperature for 50 minutes. The kinase reaction is terminated by the addition of 50 μL Stop Buffer (20 mM Tris-HCl pH 7.4, 10 mM EDTA).
75 μl/well from the reaction plate is transferred to a Multiscreen-IP plate (MultiScreen-IP plates are prepared by added 50 μL of 70% (v/v) ethanol per well and incubated for 5 minutes at room temperature. The ethanol is removed by aspiration via a MultiScreen HTS Vacuum Manifold unit (Millipore, Cat no: MSVMHT500). The plates are washed twice by adding 200 μl/well ddH2O). The MultiScreen-IP plate is incubated at room temperature for 30 minutes to allowing binding of casein to the plate. The MultiScreen-IP plates are washed three times by adding 200 μl/well 100 mM phosphoric acid solution and the gasket is carefully removed from the back of the MultiScreen-IP plate and the plate dried in the oven for 30 minutes. The MultiScreen-IP plate is backsealed, 50 μL of Microscint™20 is added, then the plates are topsealed and radiolabelled casein detected and quantified on a TopCount™ plate-reader using the ^33P scintillation protocol.

[3] = test system: bleomycin-induced pulmonary fibrosis; details: bleomycin-treated rats; cited from earlier work

| IC50 [1] [nM] | IC50 [2] [nM] | Molecule | also measured |
| --- | --- | --- | --- |
| 11 | – | CCN1CCCC1CNC(=O)c1ccc(-c2cnc3ccc(NCc4cc(F)ccc4F)nn23)cc1 (stereo not drawn) [Example 2.6, 4-[6-(2,5-Difluoro-benzylamino)-imidazo[1,2-b]pyridazin-3-yl]-N-(1-ethyl-pyrrolidin-2-ylmethyl)-benzamide] | – |
| 20 | – | O=C(c1ccc(-c2cnc3ccc(NCc4cc(F)ccc4F)nn23)cc1)N1CCOCC1 [Example 2.4, {4-[6-(2,5-Difluoro-benzylamino)-imidazo[1,2-b]pyridazin-3-yl]-phenyl}-morpholin-4-yl-methanone] | – |
| 8 | – | O=C(NCCN1CCOCC1)c1ccc(-c2cnc3ccc(NCc4cc(F)ccc4F)nn23)cc1 [Example 2.2, 4-[6(2,5-Difluorobenzylamino)-imidazo[1,2-b]pyridazin-3-yl]-N-(2-morpholin-4-yl-ethyl)benzamide] | – |
| 21 | – | O=C(NC1CCOCC1)c1cccc(-c2cnc3ccc(NCc4cc(F)ccc4F)nn23)c1 [Example 2.5] | – |
| 16 | – | CN1CCN(C(=O)c2ccc(-c3cnc4ccc(NCc5cc(F)ccc5F)nn34)cc2)CC1 [Example 2.1, {4-[6-(2,5-Difluoro-benzylamino)-imidazo[1,2-b]pyridazin-3-yl]-phenyl}-(4-methyl-piperazin-1-yl)-methanone] | – |
| 13 | – | O=C(NC1CCOCC1)c1ccc(-c2cnc3ccc(NCc4cc(F)ccc4F)nn23)cc1 [Example 2.7, 4-[6-(2,5-Difluorobenzylamino)-imidazo[1,2-b]pyridazin-3-yl]-N-(tetrahydro-pyran-4-yl)-benzamide] | – |
| 14 | – | CN(C)C1CCN(C(=O)c2ccc(-c3cnc4ccc(NCc5cc(F)ccc5F)nn34)cc2)CC1 [Example 2.3, {4-[6-(2,5-Difluorobenzylamino)-imidazo[1,2-b]pyridazin-3-yl]-phenyl}-(4-dimethylamino-piperidin-1-yl)-methanone] | – |

Second part, the molecule before the results:

| Molecule | IC50 [1] [nM] | IC50 [2] [nM] | also measured |
| --- | --- | --- | --- |
| Cc1ccc(-c2cc(-c3cnc4ccc(NC5CCC(O)CC5)nn34)ccn2)s1 (stereo not drawn) [Example 1.2, 4-{3-[2-(5-Methyl-thiophen-2-yl)-pyridin-4-yl]-imidazo[1,2-b]pyridazin-6-ylamino}-cyclohexanol] | – | 36 | – |
| O[C@H]1CC[C@H](Nc2ccc3ncc(-c4ccnc(-c5ccncc5)c4)n3n2)CC1 [Example 1.1, 4-(3-[2,4′]Bipyridinyl-4-yl-imidazo[1,2-b]pyridazin-6-ylamino)-cyclohexanol] | – | 42 | – |
| Cn1cc(-c2cc(-c3cnc4ccc(NC5CCC(O)CC5)nn34)ccn2)cn1 (stereo not drawn) [Example 1.4, 4-{3-[2-(1-Methyl-1H-pyrazol-4-yl)-pyridin-4-yl]-imidazo[1,2-b]pyridazin-6-ylamino}-cyclohexanol] | – | 150 | – |
| OC1CCC(Nc2ccc3ncc(-c4cccc(-n5cccn5)c4)n3n2)CC1 (stereo not drawn) [Example 1.7, 4-[3-(3-Pyrazol-1-yl-phenyl)-imidazo[1,2-b]pyridazin-6-ylamino]-cyclohexanol] | – | 5 | – |
| OC1CCC(Nc2ccc3ncc(-c4ccnc(-c5ccoc5)c4)n3n2)CC1 (stereo not drawn) [Example 1.3, 4-[3-(2-Furan-3-yl-pyridin-4-yl)-imidazo[1,2-b]pyridazin-6-ylamino]-cyclohexanol] | – | 5 | – |
| OC1CCC(Nc2ccc3ncc(-c4ccnc(C5CC5)c4)n3n2)CC1 (stereo not drawn) [Example 1.6, 4-[3-(2-Cyclopropyl-pyridin-4yl)-imidazo[1,2-b]pyridazin-6-ylamino]-cyclohexanol] | – | 15 | – |
| follistatin: an antagonist of activin signalling (protein, UniProt P19883 30-344, looked up) Follistatin: GNCWLRQAKNGRCQVLYKTELSKEECCSTGRLSTSWTEEDVNDNTLFKWMIFNGGAPNCIPCKETCENVDCGPGKKCRMNKKNKPRCVCAPDCSNITWKGPVCGLDGKTYRNECALLKARCKEQPELEVQYQGRCKKTCRDVFCPGSSTCVVDQTNNAYCVTCNRICPEPASSEQYLCGNDGVTYSSACHLRKATCLLGRSIGLAYEGKCIKAKSCEDIQCTGGKKCLWDFKVGRGRCSLCDELCPDSKSDEPVCASDNATYASECAMKEAACSSGVLLEVKHSGSCNSISEDTEEEEEDEDQDYSFPISSILEW | – | – | destruction of lung architecture [3]: ameliorated; lung fibrosis [3]: attenuated; number of infiltrating cells [3]: markedly reduced; number of macrophages and neutrophils in bronchoalveolar lavage [3]: significantly reduced; protein content of bronchoalveolar lavage [3]: reduced the protein content |
